Test results taken from patent publication EP4615450B1 (priority 2023, dated 2024).

Tested on: SARS-CoV2
Experiment: PCR test (Ct value) in patients, three successive lozenges (Beispiel 2)
Format: in vivo, Patienten
Settings: result in words; over time with successive administration of several lozenges, also versus placebo
Excerpt: Darüber hinaus wird die antivirale Wirksamkeit einer erfindungsgemäß einsetzbaren Zusammensetzung in Form der in Beispiel 1 beschriebenen Octenidindihydrochlorid-Lutschtablette an weiteren Patienten untersucht. Die Patienten weisen im Hinblick auf SARS-CoV2 vor Verabreichung der Lutschtabletten einen positiven PCR-Test auf (in der nachfolgenden Tabelle 3 unter "Ct0" angegeben).
Die Patienten erhalten insgesamt jeweils drei Octenidindihydrochlorid-Lutschtabletten in definierter zeitlicher Abfolge. Die Lutschzeit beträgt für eine jeweilige Tablette 15 Minuten, wobei jeweils nach jeweils weiteren 15 Minuten ein PCR-Test durchgeführt wird. Der PCR-Test nach Verabreichung der ersten Octenidindihydrochlorid-Lutschtablette wird somit 30 Minuten nach erfolgter Verabreichung durchgeführt (in der nachfolgenden Tabelle 3 unter "Ct1" angeführt).
Die zweite Octenidindihydrochlorid-Lutschtablette wird 2,5 Stunden nach Verabreichung der ersten Lutschtablette verabreicht, wobei der diesbezügliche PCR-Test 3 Stunden nach Verabreichung der ersten Lutschtablette und 30 Minuten nach Verabreichung der zweiten Lutsch-tablette durchgeführt wird (in der nachfolgenden Tabelle 3 unter "Ct2" angeführt). […]

## CCCCCCCCNc1cc[n+](CCCCCCCCCC[n+]2ccc(NCCCCCCCC)cc2)cc1.[Cl-].[Cl-] [Octenidindihydrochlorid, 1,1'-(1,10-Decandiyl)bis[4-(octylamino)pyridinium]-dichlorid]
  Ct-Wert: deutliche und nachhaltige Zuname des jeweiligen Ct-Werts
